From US5968526A, “T cell epitopes of the major allergens from Dermatophagoides (house dust mite)” (Immulogic Pharamaceutical Corporation, priority 1995, dated 1999) come the findings set out here.

Common to all, as to type: cell-based, human
The test system of assay [1] is T cell lines primed in vitro to Der p II. Put plainly: secondary proliferation of Der p II-primed T cell lines (Examples VIII, X, XI). The method, then: Experiments similar to those of Example V were performed to determine the T cell-reactive areas of the Der p II protein. For example, PBMC from house dust mite-allergic patient 348 were isolated as described in Example V and were stimulated in vitro with 20 μg/ml purified native Der p II.
The above procedure was followed with a number of patients except in individual cases, T cell lines were primed with recombinant Der p II at 20 μg/ml or at 3 μg/ml and x-irradiated (3500 Rads) autologous PBMC were used as antigen-presenting cells. The data was analyzed as described in Example V, except the ranked sum of peptide responses was analyzed assigning a value of 3, 2 or 1 to the three highest S.I. responses.
A study similar to that described in Example VII was carried out to determine the T cell cross-reactivity of the Der p II and Der f II proteins. T cells primed with the Der f II protein were challenged with various Der f II peptides and a set of substantially matching Der p II peptides.
Another experiment following the procedure described in Example VIII analyzed the response of 29 patients primed in vitro to the Der p II protein and challenged with selected peptides derived from the Der p II sequence.

Assay [2] concerns T cell lines primed in vitro to Der p I. Briefly: secondary proliferation of Der p I-primed T cell lines (Examples V, VII, XI). To be noted: for T cell response to selected Der f I peptides / T cell response to Der f I peptides: Der p I primed; for T cell response to selected Der f I peptides: 30 positive experiments, FIG. 15a; for T cell response to Der f I peptides: 14 positive experiments, FIG. 7; for T cell response to selected Der p I peptides: FIG. 13; for positivity index (P.I.): mean S.I. × percent responders, 33 patients. The method, then:
10^7 PBMC from individual 543 were cultured in 10 ml RPMI-1640 containing 5% pooled human AB serum and supplemented with glutamine, penicillin, streptomycin and HEPES buffer in the presence of 20 μg/ml purified native Der p I/ml at 37° C. for 7 days. Viable cells were then purified by Ficoll-Hypaque centrifugation and cultured for 2 additional weeks in RPMI-1640/5% AB serum containing 5 units recombinant human IL-2/ml and 5 units recombinant human IL-4/ml. The resting T cells were then tested in a secondary proliferation assay to assess T cell responses to various house dust mite proteins and peptides. For assay, 2×10^4 resting T cells were cultured in 200 μl of RPMI-1640/5% AB serum for 3 days at 37° C. in the presence of 2×10^4 autologous Epstein-Barr virus transformed B cells (20,000 Rads) as antigen presenting cells with various concentrations of purified native Der p I or synthetic Der p I peptides. Each well then received 1 μCi tritiated thymidine for 16 hours. The counts incorporated were collected onto glass fiber filters and processed for liquid scintillation counting. Medium alone, acting as negative control, contained no allergen or peptide. The results of this experiment indicate that this particular patient responds with an S.I. of at least 2.0 to several peptides derived from the Der p I protein, including DP I-1, DP I-2, DP I-4, DP I-11, DP I-5, DP I-13, DP I-15, DP I-6.1, DP I-8, DP I-9, DP I-16, DP I-10 and DP I-17 (data not shown).
The above procedure was followed with a number of other house dust mite allergic individuals except a) in individual cases, the length of time of cultivation with IL-2 and IL-4 varied; b) in individual cases, the T cells were primed with either purified native (N) or recombinant (R) Der p I protein at either 20 μg/ml or 10 μg/ml; and c) in individual cases, x-irradiated (3500 Rads) autologous PBMC were used as antigen presenting cells in the secondary proliferation assay.
Individual results were considered positive and used if the individual responded to the Der p I protein and at least one peptide derived from Der p I at an S.I. of 2.0 or greater. The resting T cell lines primed with recombinant or native Der p I-stimulated PBMC were tested for reactivity to synthetic Der p I peptides. The maximum response for each peptide in a titration of the antigen is expressed as the T cell stimulation index (S.I.). The S.I. is the counts-per-minute (CPM) incorporated by cells in response to the peptide divided by the CPM incorporated by cells in medium only. […] However, only individual S.I. values greater than or equal to 2.0 (a response two-fold or greater over background), referred to herein as "positive" results, were used in calculating mean T cell stimulation indices for each peptide for the patient or group of patients tested. […] The T cell stimulation index is calculated by: [formula]
The bar represents the cumulative rank of the peptide response in the group of patients. To determine the cumulative rank, the 5 peptides with the highest S.I. in each individual were determined and assigned a numerical rank in descending order, with 5 representing the strongest response. The ranks for each peptide were then summed in the group of patients to determine the cumulative rank for the peptide. […] Given the percent positive and the mean T cell stimulation index, the positivity index (P.I.) for each peptide can be calculated.
The Der p I and Der f I proteins are very homologous (81% identity). Thus, experiments, similar to those of Example V, were carried out to determine the T cell responses of Der p I primed T cell lines when challenged with various Der p I peptides and substantially matching […].
The results of T cell studies using selected peptides derived from the Der p I, the Der f I, the Der p II and the Der f II proteins are shown in FIGS. 13-18a-d. […]

Assay [3] relates to T cell lines primed in vitro to Der f I. Put plainly: secondary proliferation of Der f I-primed T cell lines (Examples VI, VII, XI). To be noted: for T cell reactivity: overlapping Der f I peptides, 16 positive experiments, FIG. 6; for T cell response: patient 783, recombinant Der f I primed, data not shown; for stimulation index, rank in group: 9 patients, FIG. 16a / 16b. The procedure:
Experiments similar to those of Example V were performed to determine. the T cell-reactive areas of the Der f I protein. For example, PBMC from house dust mite-allergic patient 783 were isolated as described in Example V and were stimulated in vitro-- with recombinant purified Der f I at 20 μg/ml. The results of the proliferation assay with Der f I peptides using x-irradiated (3500 Rads) autologous PBMC as antigen presenting cells indicate that T cells from this patient respond to the peptides DF I-8.1, DF I-9, DF I-6, DF I-10, DF I-2.1, DF I-3, DF I-11, DF I-5, DF I-1, and DF I-17 (data not shown).
The above procedure was followed in a number of patients except in individual cases, T cell lines were primed with affinity purified Der f I at 20 μg/ml or at 10 μg/ml and x-irradiated (25,000 Rads) autologous Epstein-Barr virus transformed B cells were used as antigen presenting cells. […]
Similarly, the procedure described in Example VI was followed with T cell lines from 9 patients primed in vitro to the Der f I protein then analyzed for response to selected peptides derived from the protein. The data was analyzed as described in Example VI. […]

Consider “DP II-20.6: Der p II peptide (DQVDVKDSANHEIKKVLVPGSHGSEP)”, for which the “ranked sum of peptide responses” value in assay [1] (30 patients, FIG. 17b) is recorded as “highest ranked sum”.
On to “DP II-3.1: Der p II peptide, native sequence (HGSEPCIIHRGKPFQLEAVFEANQNTKTA)”, for which, in assay [1] (DP II-3 vs DP II-3.1), the “difference in mean S.I. or percentage of positive responses, original vs additional (native sequence) peptides” value was “no significant difference”. For the same substance, in assay [1] (Der p II T-cell map and analogs), the “T-cell reactivity (DPII-22 series development)” value is reported as “high T-cell reactivity”.
“DF I-23.1: Der f I peptide (EYIQQNGVVEERSYPYVAREQRCRRPNSQ)”: in assay [2], the “T cell response to selected Der f I peptides” value is “respond significantly”.
Take “DF I-21.2: Der f I peptide (RINSVNVPSELDLRSLRTVTPIRMQ)”: the “T cell response to selected Der f I peptides” value in assay [2] is listed as “respond significantly”.
As for “DF I-26.1: Der f I peptide (IIGIKDLRAFQHYDGRTIIQHDNGYQ)”, the “T cell response to selected Der f I peptides” value in assay [2] was “respond significantly”.
“DF I-14: Der f I peptide (QRCRRPNSQHYGISNYCQI)”: the T cell reactivity entry in assay [3] is listed as “significant areas of T cell reactivity”.
“DF I-4: Der f I peptide (VAATESAYLAYRNTSLDLSEQ)”: in assay [2], the “T cell response to Der f I peptides” value is “respond significantly”. In addition, the T cell reactivity result in assay [3] was “significant areas of T cell reactivity”.
Take “DF I-5: Der f I peptide (GDTIPRGIEYIQQNGVVEERSYPYVARE)”: in assay [3], the T cell reactivity entry is listed as “significant areas of T cell reactivity” and the T cell response entry was “respond”.
As for “DF I-27.1: Der f I peptide (HDNGYQPNYHAVNIVGYGSTQGDDY)”, the “T cell response to selected Der f I peptides” value in assay [2] is recorded as “respond significantly”.
On to “DF I-15: Der f I peptide (HYGISNYCQIYPPDVKQIREAL)”, for which the “T cell response to Der f I peptides” value in assay [2] is listed as “respond significantly”.
With “DP I-5: Der p I peptide (GDTIPRGIEYIQHNGVVQESYYRYVARE)”, in assay [2] (overlapping Der p I peptides, 33 positive experiments), the T cell reactivity entry is recorded as “significant regions of T cell reactivity”. In assay [3] (Der f I primed, 8 positive experiments, FIG. 8), the “T cell response to Der p I peptides” value is “respond significantly”.
Consider “DF I-6: Der f I peptide (YPPDVKQIREALFQTHTAIAVIIG)”, for which, in assay [2], the “T cell response to Der f I peptides” value is given as “respond significantly”. In addition, in assay [3], the T cell reactivity entry is reported as “significant areas of T cell reactivity” and the T cell response entry is on record as “respond”.
Regarding “DF I-12: Der f I peptide (ELVDCASQHGCHGDTIPRGIE)”, the “T cell response to Der f I peptides” value in assay [2] was “respond significantly”.
Regarding “DF I-1: Der f I peptide, amino acid residues 1-20 (TSACRINSVNVPSELDLRSLR)”, in assay [2], the “T cell response to Der f I peptides” value is listed as “respond significantly”. Besides, in assay [3], the T cell reactivity entry is “significant areas of T cell reactivity” and the T cell response result was “respond”.
“DF I-2.1: Der f I peptide (ELDLRSLRTVTPIRMQGGCGSCWAFSG)”: the T cell response result in assay [3] is recorded as “respond”.
As for “DF I-10: Der f I peptide (QGDDYWIVRNSWDTTWGDSGYGYF)”, in assay [3], the T cell response entry is listed as “respond”.
Still for that read-out and setting: under “DF I-17: Der f I peptide (GDSGYGYFQAGNNLMMIEQYPYVVIM)” stands “respond”.
Turning to “DF I-21.1: Der f I peptide (TSACRINSVNVPSELDLRSLRTVTPIRMQ)”, in assay [2], the “T cell response to selected Der f I peptides” value is recorded as “respond significantly”.
Regarding “DP I-22.1: Der p I peptide (AFSGVAATESAYLAHRNQSLDLAEQELVD)”, the “T cell response to selected Der p I peptides” value in assay [2] (33 positive experiments) is listed as “respond significantly”.
For “DF I-7: Der f I peptide (TQTHTAIAVIIGIKDLRAFQHYDGRT)”, the T cell reactivity result in assay [3] is on record as “significant areas of T cell reactivity”.
“DF I-8.1: Der f I peptide (IKDLRAFQHYDGRTIIQHDNGYQPNY)”: in assay [3], the T cell reactivity result is on record as “significant areas of T cell reactivity” and the T cell response entry is “respond”.
As to “DF I-11: Der f I peptide (YRNTSLDLSEQELVDCASQHGC)”, the “T cell response to Der f I peptides” value in assay [2] is given as “respond significantly”. For the same substance, in assay [3], the T cell reactivity entry is listed as “significant areas of T cell reactivity” and the T cell response entry is on record as “respond”.
For “DF I-23.2: Der f I peptide (DTIPRGIEYIQQNGVVEERSYPYVAREQR)”, the “T cell response to selected Der f I peptides” value in assay [2] is given as “respond significantly”.
On to “DP I-28.1: Der p I peptide (NIVGYSNAQGVDYWIVRNSWDTNWGDNGY)”, for which the “T cell response to selected Der p I peptides” value in assay [2] (33 positive experiments) is on record as “respond significantly”.
With “DF I-22.1: Der f I peptide (AFSGVAATESAYLAYRNTSLDLSEQELVD)”, the “stimulation index, rank in group” value in assay [3] is “highest stimulation indexes”.
With “DP I-23.2: Der p I peptide (DTIPRGIEYIQHNGVVQESYYRYVAREQS)”, the “T cell response to selected Der p I peptides” value in assay [2] (33 positive experiments) is “respond significantly”. Further, in assay [2], the “positivity index (P.I.)” value is recorded as “at least 150”.
Consider “DF I-25.1: Der f I peptide (QIYPPDVKQIREALTQTHTAIAVIIGIKD)”, for which, in assay [2], the “T cell response to selected Der f I peptides” value is recorded as “respond significantly”. The “stimulation index, rank in group” value in assay [3] was “highest stimulation indexes”.
As to “DF I-3: Der f I peptide (TVTPIRMQGGCGSCWAFSGVAATESAYLA)”, in assay [2], the “T cell response to Der f I peptides” value is recorded as “respond significantly”. In assay [3], the T cell reactivity entry was “significant areas of T cell reactivity” and the T cell response entry was “respond”.
For “DP I-25.2: Der p I peptide (QIYPPNANKIREALAQTHSAIA)”, the “T cell response to selected Der p I peptides” value in assay [2] (33 positive experiments) was “respond significantly”. In addition, the “positivity index (P.I.)” value in assay [2] is listed as “at least 150”.
